We go through two compounds from patent US8278301B2, “2-alkylbenzoxazole carboxamides as 5HT3 modulators” (Albany Molecular Research, Inc., priority 2006, dated 2012).

The term inhibition denotes how much of the control response was suppressed. As usually defined, the Ki is a measure of affinity in units of concentration, obtained from inhibition or displacement. Low values mean higher affinity, high ones lower affinity.

One assay has as its target T1, mouse 5-HT3 receptor (Mus musculus, UniProt P23979).
T1 construct: host or cells: mouse neuroblastoma cells (N1E-155 as printed)
T1 sequence (P23979 24-489): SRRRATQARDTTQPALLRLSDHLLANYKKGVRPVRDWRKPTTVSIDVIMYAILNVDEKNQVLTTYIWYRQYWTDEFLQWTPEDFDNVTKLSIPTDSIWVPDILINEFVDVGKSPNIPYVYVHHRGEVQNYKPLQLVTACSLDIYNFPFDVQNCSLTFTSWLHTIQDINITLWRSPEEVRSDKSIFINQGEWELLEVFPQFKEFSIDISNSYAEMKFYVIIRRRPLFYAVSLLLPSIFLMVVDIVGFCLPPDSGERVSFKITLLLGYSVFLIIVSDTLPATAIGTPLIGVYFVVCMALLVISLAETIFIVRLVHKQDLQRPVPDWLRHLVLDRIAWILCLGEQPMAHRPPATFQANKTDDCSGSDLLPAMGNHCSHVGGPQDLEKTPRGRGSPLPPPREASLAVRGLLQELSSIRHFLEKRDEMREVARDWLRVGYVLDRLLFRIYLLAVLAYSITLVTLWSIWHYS
In words: Compound affinity for the mouse 5-HT3 receptor (Assay C), [3H]-GR65630 radioligand binding, Novoscreen. The note with it: Assay C; single concentration 100 nM, in duplicate; [3H]-GR65630; read-out: Mouse % Inhibition @ 100 nM. As for the experimental part:
Compound Affinity for the Mouse 5-HT3Receptor (Assay C)
Compounds were tested by Novoscreen Biosciences Corporation, 7170 Standard Drive, Hanover, Md. in a radioligand binding assay using the mouse 5-HT3 receptor derived from mouse neuroblastoma cells and [^3H]-GR65630 (ligand). The non-specific binding determinant was MDL 72222. Compounds were tested at a single concentration of 100 nM in duplicate. Percent inhibition is reported. In order to evaluate the relative affinity of the various compounds for the 5-HT3 receptor, N1E-155 cell lines were developed to express the target protein. For binding, these cells were homogenized, centrifuged and washed with buffer (20 mM HEPES, 150 mM NaCl, pH 7.4) then suspended in 0.5 mL of buffer and [^3H]-GR65630 added at a concentration of 3.5×10^−10 M. An initial single concentration of 10^−7 M of the test compound was then added. Incubation was carried out at room temperature for 60 minutes at 25° C. then was terminated by rapid removal of the incubation medium. Radioactivity was assessed using liquid scintillation spectrophotometry after exposure to scintillation cocktail for at least three hours. […] Ki values were then calculated from the Cheng-Prusoff equation. In all of the above binding studies the non-specific determinant was MDL-72222 (1.0 μM).
(§1) In the table below, the assay in which the data were obtained is shown (as A, B. C, or D) along with the data.

The next assay has as its target T2, 5-HT3 receptors (Mus musculus, UniProt P23979).
T2 construct: from tissue; host or cells: whole animal, CD-1(Crl.) mice
T2 sequence (P23979 24-489): T1 sequence (P23979 24-489)
In words: Bezold-Jarisch assay in vivo: inhibition of serotonin induced bradycardia. The note with it: 30 mg/kg orally, 60 min before 5-HT 0.5 mg/kg IV, pentobarbital-anesthetized. As for the experimental part: Bezold-Jarisch Assay in vivo. […] Arch. Int. Pharmacodyn. 277: 235-252, 1985]. Test substances and vehicle [2% Tween 80] were each administered orally (30 mg/kg) to a group of 5 male or female CD-1(Crl.) mice each weighing 24±2 g. A dosing volume of 10 mL/kg was used. Sixty minutes later, 5-HT (0.5 mg/kg IV)-induced bradycardia was recorded in pentobarbital (80 mg/kg IP, given 10 minutes before 5-HT)-anesthetized animals.

Another assay addresses T3, human 5-HT3 receptor (Homo sapiens, UniProt P46098).
T3 sequence (P46098 24-478): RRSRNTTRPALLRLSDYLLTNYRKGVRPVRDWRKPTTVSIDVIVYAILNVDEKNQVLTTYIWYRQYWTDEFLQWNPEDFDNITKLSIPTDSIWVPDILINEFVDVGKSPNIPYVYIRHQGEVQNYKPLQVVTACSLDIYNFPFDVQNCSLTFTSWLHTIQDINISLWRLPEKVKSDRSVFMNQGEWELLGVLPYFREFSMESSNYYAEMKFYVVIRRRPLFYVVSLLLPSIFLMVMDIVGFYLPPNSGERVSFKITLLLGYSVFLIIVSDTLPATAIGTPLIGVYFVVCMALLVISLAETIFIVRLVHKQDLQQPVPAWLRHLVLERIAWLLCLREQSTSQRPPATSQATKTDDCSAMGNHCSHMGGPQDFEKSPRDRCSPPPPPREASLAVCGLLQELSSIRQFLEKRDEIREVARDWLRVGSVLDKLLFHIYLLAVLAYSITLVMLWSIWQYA
Kind of assay: Compound affinity for the human 5-HT3 receptor (Assay B), SPA radioligand binding with [9-methyl-3H]BRL-43694. The arrangement: purchased Perkin Elmer. As to the method:
Compound Affinity for the Human 5-HT3 Receptor (Assay B)
The relative affinity of the various compounds for the human 5-HT3 receptor was measured in a radioligand binding assay, using a scintillation proximity assay (SPA) format. Test compounds were dissolved to 10 mM in 100% DMSO, then serially diluted at 10× assay concentrations in 100% DMSO in 96-well polypropylene plates and further diluted to 4× assay concentrations with the assay buffer. Samples were incubated in 50 mM Tris-HCl, pH 7.5, 3 mM MgCl2, 1 mM EDTA and 10% DMSO with 10 nM [9-methyl-3H]BRL-43694 (Perkin Elmer), 3 μg of human 5-HT3 receptor membranes (Perkin Elmer) and 0.5 mg/mL SPA beads (WGA PVT, Amersham Biosciences) in a final volume of 0.2 mL. Binding reactions were set up in wells of PicoPlates-96 (Perkin Elmer) by adding consecutively 50 μL of each competing compound or buffer, SPA beads, the radioligand and 5-HT3 receptor membranes. After 60-min incubation at room temperature on a Nutator mixer, plates were centrifuged for 15 min at 1,500 rpm, followed by incubation in the dark for 30 min. Radioactivity was counted in the TopCount microplate counter (Perkin Elmer) for 5 min. Total binding control contained buffer only; nonspecific binding was determined in the presence of 30 μM MDL-72222. Specific binding was determined by subtracting nonspecific binding from total binding. All experiments were performed in duplicate using ten concentrations of a competing ligand, with ondansetron included as a control in every run. IC50 values were determined from specific binding data using XLfit4.1 curve fitting software from IDBS Ltd. Ki values were then calculated from the Cheng-Prusoff equation.
as §1

Take `O=C(N[C@@H]1CN2CCC1CC2)c1cccc2oc(C3CC3)nc12` [Example 2, (S)—N-(1-Azabicyclo[2.2.2]oct-3-yl)-2-cyclopropylbenzoxazole-4-carboxamide]: the inhibition at 0.1 µM at mouse 5-HT3 receptor was 87.7%. At 5-HT3 receptors, the “inhibition of 5-HT-induced bradycardia” value is on record as 80%. Moreover, the affinity at human 5-HT3 receptor, expressed as Ki, was 11 nM.
Consider `CN1[C@@H]2CCC[C@H]1C[C@@H](NC(=O)c1cccc3oc(C4CC4)nc13)C2` [Example 1, Endo-N-(9-Methyl-9-azabicyclo[3.3.1]non-3-yl)-2-cyclopropylbenzoxazole-4-carboxamide], for which the inhibition at 0.1 µM on mouse 5-HT3 receptor is 96.1%. Besides, the “inhibition of 5-HT-induced bradycardia” value against 5-HT3 receptors turned out to be 56%. Also, the affinity at human 5-HT3 receptor corresponds to a Ki of 4.1 nM.
